Results published in US20240360154A1, “AROYL SUBSTITUTED TRICYCLIC COMPOUND, PREPARATION METHOD THEREFOR AND USE THEREOF” (GENFLEET THERAPEUTICS (SHANGHAI) INC., priority 2020, published 2024).

Assays:
[1] = molecular target: BTK (Homo sapiens (Human), UniProt Q06187); test: BTK enzyme experiment (ADP-Glo kinase assay); format: biochemical; details: 10 nM BTK, ATP 125 μM, Poly(Glu4, Tyr1), 90 minutes at 20° C.; read-out: BTK(WT) IC50
Summary of the method: (§1)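 Wild-type or C481S BTK, added as 2× solution at 10 nM, preincubated 10 min with 3-fold compound dilutions in 50 mM HEPES pH 7.5, 10 mM MgCl2, 2 mM DTT, 0.0015% Brij-35. ADP-Glo luminescence norm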

[2] = molecular target: BTK (C481S) (Homo sapiens (Human), UniProt Q06187, C481S); test: BTK C481S enzyme experiment (ADP-Glo kinase assay); format: biochemical; details: 10 nM BTK C481S, ATP 125 μM, Poly(Glu4, Tyr1), 90 minutes at 20° C.
Summary of the method: as §1

[3] = test system: TMD-8 cells; test: TMD-8 proliferation inhibition experiment; format: cell-based; details: human diffuse large B lymphoma cells, three days incubation
Experimental: TMD-8 cells are human diffuse large B lymphoma (Mingzhou Bio, MZ-0832), cultured in 10% FBS+1% PS 1640 medium; OCI-LY10 is human diffuse large B lymphoma (BeNa Culture Collection, BNCC337742), cultured in 10% FBS+1% PS IMDM. Day 1: Cells at logarithmic growth phase were taken, counted and inoculated 600 TMD-8 or 2000 OCI-LY10 cells in a 384-well cell culture plate and cultured overnight. Day 2: A 3-fold gradient concentration stock solution of 400× compound was prepared with DMSO, and diluted 40-fold to a 10× compound stock solution with culture medium. The 10× compound stock solution was added to each cell culture well with a final concentration of 1× compound stock solution and a DMSO content of 0.25%. DMSO was used as experimental control, and culture medium was used as blank control. The incubation was continued for three days after compound addition. On the fifth day, 25 μL of […] was added to each well, mixed well and incubated for 10 minutes, then the chemiluminescence value (RLU value) was read. The cell proliferation inhibition rate (%)=(RLUcontrol−RLUcompound)/(RLUcontrol−RLUblank)×100% was calculated. The compound gradient dilution concentration and the corresponding cell proliferation inhibition rate were fit by using XLFit four-parameter method, and IC50 value was calculated.

BTK (C481S), sequence (Q06187 whole entry C481S): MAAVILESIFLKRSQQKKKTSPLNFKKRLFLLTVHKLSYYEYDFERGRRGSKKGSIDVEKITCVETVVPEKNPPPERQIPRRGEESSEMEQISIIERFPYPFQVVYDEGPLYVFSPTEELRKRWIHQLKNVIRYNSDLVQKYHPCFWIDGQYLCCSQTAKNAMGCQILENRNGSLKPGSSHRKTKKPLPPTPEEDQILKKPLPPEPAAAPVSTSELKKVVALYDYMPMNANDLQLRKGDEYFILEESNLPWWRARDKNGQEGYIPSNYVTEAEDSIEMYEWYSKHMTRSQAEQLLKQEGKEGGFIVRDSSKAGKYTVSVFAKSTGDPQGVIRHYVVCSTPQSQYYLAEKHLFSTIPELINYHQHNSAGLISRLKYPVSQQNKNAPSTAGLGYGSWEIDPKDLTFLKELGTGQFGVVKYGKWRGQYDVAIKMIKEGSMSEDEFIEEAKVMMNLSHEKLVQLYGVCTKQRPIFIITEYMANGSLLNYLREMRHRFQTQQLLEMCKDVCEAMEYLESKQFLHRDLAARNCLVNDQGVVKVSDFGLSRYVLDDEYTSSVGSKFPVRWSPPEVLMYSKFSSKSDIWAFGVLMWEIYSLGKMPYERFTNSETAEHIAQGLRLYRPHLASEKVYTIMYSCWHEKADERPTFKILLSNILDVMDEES
BTK, sequence (Q06187 whole entry): as the sequence (Q06187 whole entry C481S) above, with S481C counted along it

Row | Compound | IC50 [1] [nM] | IC50 [2] [nM] | IC50 ([3]; Homo sapiens, TMD8, 72 h) [nM] | IC50 [3] [nM] | IC50 ([3]; TMD8, 72 h) [nM]
1 | Cc1ccnc(Oc2ccc(C(=O)c3c[nH]c4ncc5c(c34)NC3(CCOCC3)C(=O)N5C)c(Cl)c2)c1 [Z72, 9′-(2-chloro-4-((4-methylpyridin-2-yl)oxy)benzoyl)-4′-methyl-2,3,4′,5,6,7′-hexahydrospiro[pyran-4,2′-pyrrolo[3′,2′:5,6]pyrido[3,4-b]pyrazin]-3′(1′H)-one] | 40 | 37.2 | 404 |  | 
2 | COCC1(C)Nc2c(cnc3[nH]cc(C(=O)c4ccc(Oc5cc(C6CC6)ccn5)cc4Cl)c23)NC1=O (stereo not drawn) [Z73, 9-(2-chloro-4-((4-cyclopropylpyridin-2-yl)oxy)benzoyl)-2-(methoxymethyl)-2-methyl-4,7-dihydro-1H-pyrrolo[3′,2′:5,6]pyrido[3,4-b]pyrazin-3(2H)-one] | 22.8 | 14.5 | 209 |  | 
3 | COCC[C@@]1(C)Nc2c(cnc3[nH]cc(C(=O)c4ccc(Oc5ccccc5)cc4Cl)c23)NC1=O [Z78-1] | 27.6 | 28.8 |  | 289 | 
4 | COC[C@]1(C)Nc2c(cnc3[nH]cc(C(=O)c4ccc(Oc5cccc(C)n5)cc4Cl)c23)NC1=O [Z124-1, (S)-9-(2-chloro-4-((6-methylpyridin-2-yl)oxy)benzoyl)-2-(methoxymethyl)-2-methyl-1,2,4,7-tetrahydro-3H-pyrrolo[3′,2′:5,6]pyrido[3,4-b]pyrazin-3-one] | 24.5 | 30.1 |  |  | 199
5 | COC1CCC2(C1)Nc1c(cnc3[nH]cc(C(=O)c4ccc(Oc5cc(C)ccn5)cc4Cl)c13)NC2=O (stereo not drawn) [Z126, 9′-(2-chloro-4-((4-methylpyridin-2-yl)oxy)benzoyl)-3-methoxy-4′,7′-dihydrospiro[cyclopentane-1,2′-pyrrolo[3′,2′:5,6]pyrido[3,4-b]pyrazin]-3′(1′H)-one] | 5.7 | 13.4 | 183 |  | 
6 | COC[C@]1(C)Nc2c(cnc3[nH]cc(C(=O)c4ccc(Oc5cccc(C#N)c5)cc4Cl)c23)NC1=O [Z131, (S)-3-(3-chloro-4-(2-(methoxymethyl)-2-methyl-3-oxo-2,3,4,7-tetrahydro-1H-pyrrolo[3′,2′:5,6]pyrido[3,4-b]pyrazine-9-carbonyl)phenoxy)benzonitrile] | 26.9 | 37.8 | 307 |  | 
7 | COC[C@]1(C)Nc2c(cnc3[nH]cc(C(=O)c4ccc(Oc5cc(Cl)cc(C)n5)cc4Cl)c23)NC1=O [Z134, (S)-9-(2-chloro-4-((4-chloro-6-methylpyridin-2-yl)oxy)benzoyl)-2-(methoxymethyl)-2-methyl-1,2,4,7-tetrahydro-3H-pyrrolo[3′,2′:5,6]pyrido[3,4-b]pyrazin-3-one] | 14.9 | 11.4 | 256 |  | 
8 | C[C@@]1(COC(F)F)Nc2c(cnc3[nH]cc(C(=O)c4ccc(Oc5ccccc5)cc4Cl)c23)NC1=O [Z139, (S)-9-(2-chloro-4-phenoxybenzoyl)-2-((difluoromethoxy)methyl)-2-methyl-1,2,4,7-tetrahydro-3H-pyrrolo[3′,2′:5,6]pyrido[3,4-b]pyrazin-3-one] | 37.1 | 22.1 | 106 |  | 
9 | COC[C@]1(C)Nc2c(cnc3[nH]cc(C(=O)c4ccc(Oc5ncccc5C)cc4Cl)c23)NC1=O [Z140, (S)-9-(2-chloro-4-((3-methylpyridin-2-yl)oxy)benzoyl)-2-(methoxymethyl)-2-methyl-1,2,4,7-tetrahydro-3H-pyrrolo[3′,2′:5,6]pyrido[3,4-b]pyrazin-3-one] | 26.5 | 18.2 | 158 |  | 
10 | COC[C@]1(C)Nc2c(cnc3[nH]cc(C(=O)c4ccc(Oc5ccccc5)cc4Cl)c23)N(CCO)C1=O [Z143] | 35.6 | 23.2 |  | 291 | 
11 | COC[C@]1(C)Nc2c(cnc3[nH]cc(C(=O)c4ccc(Oc5ncccc5F)cc4Cl)c23)NC1=O [Z144, (S)-9-(2-chloro-4-((3-fluoropyridin-2-yl)oxy)benzoyl)-2-(methoxymethyl)-2-methyl-1,2,4,7-tetrahydro-3H-pyrrolo[3′,2′:5,6]pyrido[3,4-b]pyrazin-3-one] | 11.7 | 16.8 | 227 |  | 
12 | [2H]C([2H])([2H])OC[C@]1(C)Nc2c(cnc3[nH]cc(C(=O)c4ccc(Oc5ncccc5F)cc4Cl)c23)NC1=O [Z145, (S)-9-(2-chloro-4-((3-fluoropyridin-2-yl)oxy)benzoyl)-2-((methoxy-d3)methyl)-2-methyl-1,2,4,7-tetrahydro-3H-pyrrolo[3′,2′:5,6]pyrido[3,4-b]pyrazin-3-one] | 9.3 | 13.1 | 166 |  | 
13 | [2H]C([2H])([2H])OC[C@]1(C)Nc2c(cnc3[nH]cc(C(=O)c4ccc(Oc5nccc(C)c5F)cc4Cl)c23)NC1=O [Z146, (S)-9-(2-chloro-4-((3-fluoro-4-methylpyridin-2-yl)oxy)benzoyl)-2-((methoxy-d3)methyl)-2-methyl-1,2,4,7-tetrahydro-3H-pyrrolo[3′,2′:5,6]pyrido[3,4-b]pyrazin-3-one] | 10 | 16.3 | 195 |  | 
14 | COC[C@]1(C)Nc2c(cnc3[nH]cc(C(=O)c4ccc(Oc5ncccc5Cl)cc4Cl)c23)NC1=O [Z147, (S)-9-(2-chloro-4-((3-chloropyridin-2-yl)oxy)benzoyl)-2-(methoxymethyl)-2-methyl-1,2,4,7-tetrahydro-3H-pyrrolo[3′,2′:5,6]pyrido[3,4-b]pyrazin-3-one] | 11.1 | 19.8 | 279 |  | 
15 | COC[C@]1(C)Nc2c(cnc3[nH]cc(C(=O)c4ccc(Oc5ccccc5F)cc4F)c23)NC1=O [Z156, (S)-9-(2-fluoro-4-(2-fluorophenoxy)benzoyl)-2-(methoxymethyl)-2-methyl-1,2,4,7-tetrahydro-3H-pyrrolo[3′,2′:5,6]pyrido[3,4-b]pyrazin-3-one] | 20 | 10.5 | 117 |  | 
16 | COC[C@]1(C)Nc2c(cnc3[nH]cc(C(=O)c4ccc(Oc5cccc(F)c5)cc4Cl)c23)NC1=O [Z157, (S)-9-(2-chloro-4-(3-fluorophenoxy)benzoyl)-2-(methoxymethyl)-2-methyl-1,2,4,7-tetrahydro-3H-pyrrolo[3′,2′:5,6]pyrido[3,4-b]pyrazin-3-one] | 15.2 | 10.8 | 145 |  | 
17 | [2H]C([2H])([2H])OC[C@]1(C)Nc2c(cnc3[nH]cc(C(=O)c4ccc(Oc5cccc(F)c5)cc4Cl)c23)NC1=O [Z162, (S)-9-(2-chloro-4-(3-fluorophenoxy)benzoyl)-2-((methoxy-d3)methyl)-2-methyl-1,2,4,7-tetrahydro-3H-pyrrolo[3′,2′:5,6]pyrido[3,4-b]pyrazin-3-one] | 25.6 | 36 | 169 |  | 
18 | COC[C@]1(C)Nc2c(cnc3[nH]cc(C(=O)c4ccc(Oc5ccccc5OC)cc4Cl)c23)NC1=O [Z163, (S)-9-(2-chloro-4-(2-methoxyphenoxy)benzoyl)-2-(methoxymethyl)-2-methyl-1,2,4,7-tetrahydro-3H-pyrrolo[3′,2′:5,6]pyrido[3,4-b]pyrazin-3-one] | 10.6 | 16.5 | 75.7 |  | 
19 | COC[C@]1(C)Nc2c(cnc3[nH]cc(C(=O)c4ccc(Oc5ccccc5Cl)cc4Cl)c23)NC1=O [Z164, (S)-9-(2-chloro-4-(2-chlorophenoxy)benzoyl)-2-(methoxymethyl)-2-methyl-1,2,4,7-tetrahydro-3H-pyrrolo[3′,2′:5,6]pyrido[3,4-b]pyrazin-3-one] | 22.4 | 30.1 | 145 |  | 
20 | COC[C@]1(C)Nc2c(cnc3[nH]cc(C(=O)c4ccc(Oc5cccc(Cl)c5)cc4Cl)c23)NC1=O [Z165, (S)-9-(2-chloro-4-(3-chlorophenoxy)benzoyl)-2-(methoxymethyl)-2-methyl-1,2,4,7-tetrahydro-3H-pyrrolo[3′,2′:5,6]pyrido[3,4-b]pyrazin-3-one] | 54.2 | 73.9 | 366 |  | 
21 | COC[C@]1(C)Nc2c(cnc3[nH]cc(C(=O)c4ccc(Oc5cccc(OC)c5)cc4Cl)c23)NC1=O [Z166, (S)-9-(2-chloro-4-(3-methoxyphenoxy)benzoyl)-2-(methoxymethyl)-2-methyl-1,2,4,7-tetrahydro-3H-pyrrolo[3′,2′:5,6]pyrido[3,4-b]pyrazin-3-one] | 34 | 59.4 | 245 |  | 
22 | CCOC[C@]1(C)Nc2c(cnc3[nH]cc(C(=O)c4ccc(Oc5cc(C)ccn5)cc4Cl)c23)NC1=O [Z167, (S)-9-(2-chloro-4-((4-methylpyridin-2-yl)oxy)benzoyl)-2-(ethoxymethyl)-2-methyl-1,2,4,7-tetrahydro-3H-pyrrolo[3′,2′:5,6]pyrido[3,4-b]pyrazin-3-one] | 11.2 | 12.1 | 372 |  | 
